How the values were obtained:
[1] = target: T1, Mitogen-activated protein kinase 14 (Homo sapiens, UniProt Q16539); assay: Fluorescence-Based Competition Assay; details: pH 7
Description: The competitive binding between test compounds and a fluorescence p38 alpha inhibitor, SK&F 86002.

[2] = target: T1, Mitogen-activated protein kinase 14; assay: Kinase Activity Assay; details: pH 7
Procedure: In vitro kinase activity and selectivity was determined by using SelectScreen kinase profiling Z'-LYTE assay from Invitrogen.

T1 sequence (Q16539 whole entry): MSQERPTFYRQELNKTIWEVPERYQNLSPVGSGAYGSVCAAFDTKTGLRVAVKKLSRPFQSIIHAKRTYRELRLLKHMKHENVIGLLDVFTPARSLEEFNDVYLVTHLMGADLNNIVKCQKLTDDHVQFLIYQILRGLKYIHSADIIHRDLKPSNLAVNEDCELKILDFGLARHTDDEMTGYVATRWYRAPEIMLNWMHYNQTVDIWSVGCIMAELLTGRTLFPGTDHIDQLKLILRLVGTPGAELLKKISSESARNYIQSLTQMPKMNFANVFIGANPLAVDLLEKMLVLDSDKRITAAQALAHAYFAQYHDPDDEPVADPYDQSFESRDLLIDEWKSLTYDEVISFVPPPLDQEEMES

C=C1SN(C)c2ccc(S(=O)(=O)Nc3ccccc3N3CCCCC3)cc21 [BI-12H11]
IC50 [1]: 5610 nM
IC50 [2]: 710 nM
Kd [2]: 760 nM

From BindingDB's records for doi:10.1021/cb700025j (Burnham Institute for Medical Research, 2007)
